Test results: patent US20260069584A1, “METHODS OF TREATING CHRONIC MYELOID LEUKEMIA USING THE TYROSINE KINASE INHIBITOR VODOBATINIB” (Sun Pharma Advanced Research Company Ltd., priority 2022, published 2026)

System: AP CML, BP CML and Ph+ ALL
Assay: Part B: disease response in AP CML, BP CML and Ph+ ALL subjects
Format: in vivo, human
Description: This was a Phase I/2, open-label, single-agent, multicenter, multi-dose, dose-escalation study in subjects with Philadelphia chromosome-positive Ph+ CML (CP CML, AP CML and BP CML) and Ph+ ALL. The primary objectives of this study were to determine the maximum tolerated dose (MTD; or recommended Phase 2 dose [RP2D]) of the compound of Formula I when administered orally and to evaluate its safety.
In this study, the dose-escalation cohort started with an accelerated titration study design (ATD) and shifted to a 3±3 design when subjects in the preceding ATD cohort experienced either grade 2 or higher adverse events (AEs) or dose-limiting toxicity (DLT) during Cycle 1 that was not clearly and incontrovertibly related to the underlying disease or concomitant medications. The DLT period consisted of 28 days (Cycle 1). Subjects experiencing DLTs were managed with dose delays and/or discontinuation and continued in the study until disease progression. Decisions to advance to a succeeding dose level occurred after the evaluation of safety and tolerability data for a given dose level.
Accordingly, the eligible subjects were treated in 4-week cycles of once daily self-administration of the compound of Formula I. The administration was after an overnight fast, or after maintaining approximately 2 hours of fasting before and after the dosing in all cycles.
For the cohorts, where the 3±3 design applies, 3 subjects were enrolled initially. If 2 of these subjects experienced a Grade 2 or more toxicity (that was not clearly and incontrovertibly related to the underlying disease or concomitant medications), subsequent cohorts were escalated according to smaller increments. Further, if there were no DLTs in the first 3 subjects, dose escalation to the next higher dose level was allowed to proceed. If 1 of the 3 subjects experienced a DLT, that dose level was expanded to 6 subjects (3 additional subjects were enrolled). If 2 subjects at a given dose level experienced a DLT, the MTD was considered to have been exceeded. The next lower dose level was expanded to 6 subjects, or if 6 subjects had already been enrolled and no more than 1 of the 6 subjects experienced a DLT, then this lower dose level was considered the MTD. Additional subjects were enrolled in dose escalation cohorts for further assessment of safety and efficacy of the compound of Formula 1 at doses that were tolerated (i.e., doses that have <2 DLTs in 6 enrolled subjects or <1 DLT in 3 enrolled subjects). Thus 204 mg was arrived at as MTD. A subject experiencing a DLT was allowed to continue therapy with a reduced dose. Subjects who experienced a DLT and recovered were treated at the next lower dose level until disease progression or other events requiring further dose reduction existed. For cohorts at Dose Level 2 or higher, a further dose reduction (i.e., up to 2 levels lower than their originally assigned dose) was implemented in the case of a further DLT or other non-DLT events requiring a dose reduction, if and when the event leading to dose reduction returned to Grade 1 or lower in severity. The reduced dose was re-escalated to the original or higher dose (i.e., the dose for which safety had been established in the dose escalation cohort) considering subject safety and response to the compound of Formula I. The subject was discontinued from treatment using the compound of Formula I, if dose reduction below 48 mg was required.
The study was conducted over a period of 60 months (5 years) which was divided in 28-days cycle. In the first two cycles, the dose administration was started on day 1 and the subject's assessments were performed on day 1, day 2, day 3, day 8, day 15 and day 22. From Cycle 3 onwards, the assessments were performed every 3 months (i.e., on day 28 of Cycle 3, followed by day 28 of Cycle 6 which was further followed by day 28 of Cycle 9). […]

SMILES: Cc1ccc(C(=O)NNC(=O)c2c(C)cccc2Cl)cc1C#Cc1cnc2ccccc2c1 [compound of Formula I, N′-(2-chloro-6-methylbenzoyl)-4-methyl-3-[2-(3-quinolyl)ethynyl]-benzohydrazide]
- Best Cytogenetic Response: Complete Response (24 mg (N = 1) ESC): 1(100)
- Best Cytogenetic Response: Major Cytogenetic Response (24 mg (N = 1) ESC): 1(100)
- Best Cytogenetic Response: Minimal Response (24 mg (N = 1) ESC): 0
- Best Cytogenetic Response: Minor Response (24 mg (N = 1) ESC): 0
- Best Cytogenetic Response: No Response (24 mg (N = 1) ESC): 0
- Best Cytogenetic Response: Partial Response (24 mg (N = 1) ESC): 0
- Best Hematologic Response: Complete Response (24 mg (N = 1) ESC): 1(100)
- Best Hematologic Response: Major Hematologic Response (24 mg (N = 1) ESC): 1(100)
- Best Hematologic Response: No Evidence of Leukemia (24 mg (N = 1) ESC): 0
- Best Hematologic Response: No Response (24 mg (N = 1) ESC): 0
- Best Molecular Response: Complete Response (24 mg (N = 1) ESC): 0
- Best Molecular Response: Major Response (24 mg (N = 1) ESC): 1(100)
- Best Molecular Response: No Response (24 mg (N = 1) ESC): 0
- Best Cytogenetic Response: Complete Response (48 mg (N = 3) ESC): 2(66.7)
- Best Cytogenetic Response: Major Cytogenetic Response (48 mg (N = 3) ESC): 2(66.7)
- Best Cytogenetic Response: Minimal Response (48 mg (N = 3) ESC): 0
- Best Cytogenetic Response: Minor Response (48 mg (N = 3) ESC): 0
- Best Cytogenetic Response: No Response (48 mg (N = 3) ESC): 1(33.3)
- Best Cytogenetic Response: Partial Response (48 mg (N = 3) ESC): 0
- Best Hematologic Response: Complete Response (48 mg (N = 3) ESC): 3(100)
- Best Hematologic Response: Major Hematologic Response (48 mg (N = 3) ESC): 3(100)
- Best Hematologic Response: No Evidence of Leukemia (48 mg (N = 3) ESC): 0
- Best Hematologic Response: No Response (48 mg (N = 3) ESC): 0
- Best Molecular Response: Complete Response (48 mg (N = 3) ESC): 1(33.3)
- Best Molecular Response: Major Response (48 mg (N = 3) ESC): 1(33.3)
- Best Molecular Response: No Response (48 mg (N = 3) ESC): 2(66.7)
- Best Cytogenetic Response: Complete Response (90 mg (N = 1) ESC): 1(100)
- Best Cytogenetic Response: Major Cytogenetic Response (90 mg (N = 1) ESC): 1(100)
- Best Cytogenetic Response: Minimal Response (90 mg (N = 1) ESC): 0
- Best Cytogenetic Response: Minor Response (90 mg (N = 1) ESC): 0
- Best Cytogenetic Response: No Response (90 mg (N = 1) ESC): 0
- Best Cytogenetic Response: Partial Response (90 mg (N = 1) ESC): 0
- Best Hematologic Response: Complete Response (90 mg (N = 1) ESC): 1(100)
- Best Hematologic Response: Major Hematologic Response (90 mg (N = 1) ESC): 1(100)
- Best Hematologic Response: No Evidence of Leukemia (90 mg (N = 1) ESC): 0
- Best Hematologic Response: No Response (90 mg (N = 1) ESC): 0
- Best Molecular Response: Complete Response (90 mg (N = 1) ESC): 1(100)
- Best Molecular Response: Major Response (90 mg (N = 1) ESC): 1(100)
- Best Molecular Response: No Response (90 mg (N = 1) ESC): 0
- Best Cytogenetic Response: Complete Response (126 mg (N = 3) ESC): 0
- Best Cytogenetic Response: Major Cytogenetic Response (126 mg (N = 3) ESC): 0
- Best Cytogenetic Response: Minimal Response (126 mg (N = 3) ESC): 0
- Best Cytogenetic Response: Minor Response (126 mg (N = 3) ESC): 1(33.3)
- Best Cytogenetic Response: No Response (126 mg (N = 3) ESC): 1(33.3)
- Best Cytogenetic Response: Partial Response (126 mg (N = 3) ESC): 0
- Best Hematologic Response: Complete Response (126 mg (N = 3) ESC): 0
- Best Hematologic Response: Major Hematologic Response (126 mg (N = 3) ESC): 0
- Best Hematologic Response: No Evidence of Leukemia (126 mg (N = 3) ESC): 0
- Best Hematologic Response: No Response (126 mg (N = 3) ESC): 1(33.3)
- Best Molecular Response: Complete Response (126 mg (N = 3) ESC): 0
- Best Molecular Response: Major Response (126 mg (N = 3) ESC): 0
- Best Molecular Response: No Response (126 mg (N = 3) ESC): 2(66.7)
- maintained CCyR and MMR (2 Ph+ ALL pts): 1 pt
- CCyR with MMR (3 AP CML patients): 1 patient
- PCyR (3 AP CML patients): 2 patients
- complete hematological response (CHR) (4 BP CML patients): 2 patients
- disease progression as best response (4 BP CML patients): 2 patients
- Best Cytogenetic Response: Complete Response (66 ang (N = 3) ESC): 2(66.7)
- Best Cytogenetic Response: Minor Response (66 ang (N = 3) ESC): 0
- Best Cytogenetic Response: No Response (66 ang (N = 3) ESC): 0
- Best Hematologic Response: Complete Response (66 ang (N = 3) ESC): 0
- Best Hematologic Response: Major Hematologic Response (66 ang (N = 3) ESC): 2(66.7)
- Best Hematologic Response: No Response (66 ang (N = 3) ESC): 1(33.3)
- Best Molecular Response: Major Response (66 ang (N = 3) ESC): 1(33.3)
- Best Molecular Response: No Response (66 ang (N = 3) ESC): 2(66.7)
- Best Cytogenetic Response: Major Cytogenetic Response ((N = 3) ESC): 3(100)
- Best Cytogenetic Response: Minimal Response ((N = 3) ESC): 0
- Best Cytogenetic Response: Partial Response ((N = 3) ESC): 1(33.3)
- Best Hematologic Response: No Evidence of Leukemia ((N = 3) ESC): 2(66.7)
- Best Molecular Response: Complete Response ((N = 3) ESC): 1(33.3)
- Best Cytogenetic Response: Complete Response (Total ESC): 6(54.5)
- Best Cytogenetic Response: Major Cytogenetic Response (Total ESC): 7(63.6)
- Best Cytogenetic Response: Minimal Response (Total ESC): 0
- Best Cytogenetic Response: Minor Response (Total ESC): 1(9.1)
- Best Cytogenetic Response: No Response (Total ESC): 2(18.2)
- Best Cytogenetic Response: Partial Response (Total ESC): 1(9.1)
- Best Hematologic Response: Complete Response (Total ESC): 5(45.5)
- Best Hematologic Response: Major Hematologic Response (Total ESC): 7(63.6)
- Best Hematologic Response: No Evidence of Leukemia (Total ESC): 2(18.2)
- Best Hematologic Response: No Response (Total ESC): 2(18.2)
- Best Molecular Response: Complete Response (Total ESC): 3(27.3)
- Best Molecular Response: Major Response (Total ESC): 4(36.4)
- Best Molecular Response: No Response (Total ESC): 6(54.5)
